Among the data in patent publication US12227496B2 (BRISTOL-MYERS SQUIBB COMPANY, priority 2019, dated 2025) are EC50 values, retold here.

SMILES strings stand for the structures.

For this assay, the target named is T1, human FXR (Homo sapiens, UniProt Q96RI1).
T1 construct: expressed in transfected cells; host or cells: HEK293 cells stably carrying a 5xGal4-response-element firefly luciferase reporter, transiently transfected with pcDNA3.1-Gal4-FXR
T1 sequence (Q96RI1 262-486 limits assumed): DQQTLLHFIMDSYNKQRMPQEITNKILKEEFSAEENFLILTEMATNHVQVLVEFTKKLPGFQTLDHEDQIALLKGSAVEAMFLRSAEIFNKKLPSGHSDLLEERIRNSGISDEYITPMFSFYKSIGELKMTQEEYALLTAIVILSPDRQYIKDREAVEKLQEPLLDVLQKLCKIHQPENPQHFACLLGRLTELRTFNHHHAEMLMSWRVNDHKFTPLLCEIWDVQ
As to the kind of experiment: transient human FXR/Gal4-luciferase reporter assay. To be noted: Gal4-hFXR LBD fusion, luciferase reporter in HEK293 cells; response relative to 8 μM GW-4064. The format is cell-based. In outline:
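HEK293 cells stably carrying a 5×Gal4-response-element firefly luciferase reporter were transiently transfected with Gal4-hFXR. They were then incubated overnight at 37 °C with compound serial dilutions in medium containing 10% charcoal/dextran-stripped FBS. Luminescence was read after Steady-Glo addition.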
What is called EC50 is the midpoint of the concentration-response curve. A higher EC50 goes with lower potency in that assay. On to `CC(F)(F)c1nc(C23CCC(CN(C(=O)C4CCC(F)(F)CC4)c4cccc(-c5nc(C6CC6)no5)c4)(CC2)CC3)no1` [Example 112, N-(3-(3-cyclopropyl-1,2,4-oxadiazol-5-yl)phenyl)-N-((4-(5-(1,1-difluoroethyl)-1,2,4-oxadiazol-3-yl)bicyclo[2.2.2]octan-1-yl)methyl)-4,4-difluorocyclohexane-1-carboxamide], for which the EC50 amounted to 142 nM.

As for `CCOc1ccc(-c2cccc(N(CC34CCC(c5noc(C(C)(F)F)n5)(CC3)CC4)C(=O)C3CCC(F)(F)CC3)c2)cc1` [Example 113, N-((4-(5-(1,1-difluoroethyl)-1,2,4-oxadiazol-3-yl)bicyclo[2.2.2]octan-1-yl)methyl)-N-(4′-ethoxy-[1,1′-biphenyl]-3-yl)-4,4-difluorocyclohexane-1-carboxamide], the EC50 was found to be 665 nM.

Turning to `CC(C)(C)c1noc(C23CCC(CN(C(=O)C4CCC(F)(F)CC4)c4cc(F)cc(-c5nc(C6CC6)no5)c4)(CC2)CC3)n1` [Example 114, N-((4-(3-(tert-butyl)-1,2,4-oxadiazol-5-yl)bicyclo[2.2.2]octan-1-yl)methyl)-N-(3-(3-cyclopropyl-1,2,4-oxadiazol-5-yl)-5-fluorophenyl)-4,4-difluorocyclohexane-1-carboxamide], the EC50 is 325 nM. This EC50 is about 2-fold lower than that of the molecule before.

The molecule `CC(C)(C)c1noc(C23CCC(CN(C(=O)C4CCOCC4)c4cc(F)cc(-c5nc(C6CC6)no5)c4)(CC2)CC3)n1` [Example 115, N-((4-(3-(tert-butyl)-1,2,4-oxadiazol-5-yl)bicyclo[2.2.2]octan-1-yl)methyl)-N-(3-(3-cyclopropyl-1,2,4-oxadiazol-5-yl)-5-fluorophenyl)tetrahydro-2H-pyran-4-carboxamide] came in with an EC50 of 83 nM. This EC50 is about 3.9-fold lower than that of the molecule before.

`CC(C)(C)c1nc(C23CCC(CN(C(=O)C4CCOCC4)c4cccc(-c5nc(C6CC6)no5)c4)(CC2)CC3)no1` [Example 116, N-((4-(5-(tert-butyl)-1,2,4-oxadiazol-3-yl)bicyclo[2.2.2]octan-1-yl)methyl)-N-(3-(3-cyclopropyl-1,2,4-oxadiazol-5-yl)phenyl)tetrahydro-2H-pyran-4-carboxamide] returned a concentration giving a half-maximal response (EC50) of 61 nM.

In turn, `CC(C)(C)c1nc(C23CCC(CN(C(=O)C4CCS(=O)(=O)CC4)c4cccc(-c5nc(C6CC6)no5)c4)(CC2)CC3)no1` [Example 117, N-((4-(5-(tert-butyl)-1,2,4-oxadiazol-3-yl)bicyclo[2.2.2]octan-1-yl)methyl)-N-(3-(3-cyclopropyl-1,2,4-oxadiazol-5-yl)phenyl)tetrahydro-2H-thiopyran-4-carboxamide 1,1-dioxide] registered a concentration giving a half-maximal response (EC50) of 729 nM.

`CN1CCC(C(=O)N(CC23CCC(c4noc(C(C)(C)C)n4)(CC2)CC3)c2cccc(-c3nc(C4CC4)no3)c2)CC1` [Example 118, N-((4-(5-(tert-butyl)-1,2,4-oxadiazol-3-yl)bicyclo[2.2.2]octan-1-yl)methyl)-N-(3-(3-cyclopropyl-1,2,4-oxadiazol-5-yl)phenyl)-1-methylpiperidine-4-carboxamide] displayed an EC50 of 1950 nM.

In turn, `O=C(C1CCC(F)(F)CC1)N(CC12CCC(c3noc(C(F)(F)F)n3)(CC1)CC2)c1cccc(-c2cnc(C3CC3)nc2)c1` [Example 119, N-(3-(2-cyclopropylpyrimidin-5-yl)phenyl)-4,4-difluoro-N-((4-(5-(trifluoromethyl)-1,2,4-oxadiazol-3-yl)bicyclo[2.2.2]octan-1-yl)methyl)cyclohexane-1-carboxamide] yielded an EC50 of 290 nM.

Consider `O=C(C1CCC(F)(F)CC1)N(CC12CCC(c3noc(C4CC(O)(C(F)(F)F)C4)n3)(CC1)CC2)c1cccc(-c2cnc(C3CC3)nc2)c1` (stereo not shown) [Example 120, N-(3-(2-cyclopropylpyrimidin-5-yl)phenyl)-4,4-difluoro-N-((4-(5-(3-hydroxy-3-(trifluoromethyl)cyclobutyl)-1,2,4-oxadiazol-3-yl)bicyclo[2.2.2]octan-1-yl)methyl)cyclohexane-1-carboxamide], for which the half-maximal effective concentration (EC50) was 2000 nM.

The molecule `CC(F)(F)c1nc(C23CCC(CN(C(=O)C4CCOCC4)c4ccc(F)c(-c5ccc(P(C)(C)=O)cc5)c4)(CC2)CC3)no1` [Example 122, N-((4-(5-(1,1-difluoroethyl)-1,2,4-oxadiazol-3-yl)bicyclo[2.2.2]octan-1-yl)methyl)-N-(4′-(dimethylphosphoryl)-6-fluoro-[1,1′-biphenyl]-3-yl)tetrahydro-2H-pyran-4-carboxamide] returned an EC50 of 1320 nM.

`CC(C)(C)c1nnc(C23CCC(CN(C(=O)C4CCC(F)(F)CC4)c4cccc(-c5nc(C6CC6)no5)c4)(CC2)CC3)o1` [Example 123, N-((4-(5-(tert-Butyl)-1,3,4-oxadiazol-2-yl)bicyclo[2.2.2]octan-1-yl)methyl)-N-(3-(3-cyclopropyl-1,2,4-oxadiazol-5-yl)phenyl)-4,4-difluorocyclohexane-1-carboxamide] came in with an EC50 of 280 nM.

Take `CC(C)(C)c1nnc(C23CCC(CN(C(=O)C4CCC(F)(F)CC4)c4cccc(-c5cc(C6CC6)on5)c4)(CC2)CC3)o1` [Example 124, N-((4-(5-(tert-Butyl)-1,3,4-oxadiazol-2-yl)bicyclo[2.2.2]octan-1-yl)methyl)-N-(3-(5-cyclopropylisoxazol-3-yl)phenyl)-4,4-difluorocyclohexane-1-carboxamide]: the EC50 was found to be 467 nM.

For `CCOc1ncc(-c2cccc(N(CC34CCC(c5nc(C(C)(C)C)no5)(CC3)CC4)C(=O)c3cc(Cl)cc(Cl)c3)c2)cn1` [Example 125, N-((4-(3-(tert-Butyl)-1,2,4-oxadiazol-5-yl)bicyclo[2.2.2]octan-1-yl)methyl)-3,5-dichloro-N-(3-(2-ethoxypyrimidin-5-yl)phenyl)benzamide], the EC50 was 726 nM.

As for `CC(C)(C)c1noc(C23CCC(CN(C(=O)C4CCC(F)(F)CC4)c4cccc(-c5cn[nH]c(=O)c5)c4)(CC2)CC3)n1` [Example 127, N-((4-(3-(tert-Butyl)-1,2,4-oxadiazol-5-yl)bicyclo[2.2.2]octan-1-yl)methyl)-4,4-difluoro-N-(3-(6-oxo-1,6-dihydropyridazin-4-yl)phenyl)cyclohexane-1-carboxamide], the EC50 came out at 4000 nM.

The molecule `CC(C)(F)c1nc(C23CCC(CN(C(=O)C4CCOCC4)c4cccc(-c5cn[nH]c(=O)c5)c4)(CC2)CC3)no1` [Example 128, N-((4-(5-(2-fluoropropan-2-yl)-1,2,4-oxadiazol-3-yl)bicyclo[2.2.2]octan-1-yl)methyl)-N-(3-(6-oxo-1,6-dihydropyridazin-4-yl)phenyl)tetrahydro-2H-pyran-4-carboxamide] gave an EC50 of 4000 nM.

`CC(F)(F)c1nc(C23CCC(CN(C(=O)C4CCOCC4)c4cccc(-c5cn[nH]c(=O)c5)c4)(CC2)CC3)no1` [Example 129, N-((4-(5-(1,1-difluoroethyl)-1,2,4-oxadiazol-3-yl)bicyclo[2.2.2]octan-1-yl)methyl)-N-(3-(6-oxo-1,6-dihydropyridazin-4-yl)phenyl)tetrahydro-2H-pyran-4-carboxamide] displayed an EC50 of 1480 nM.

Consider `CC(F)(F)c1nc(C23CCC(CN(C(=O)C4CCC(F)(F)CC4)c4cccc(-c5ccc(S(C)(=O)=O)cc5)c4)(CC2)CC3)no1` [Example 130, N-((4-(5-(1,1-difluoroethyl)-1,2,4-oxadiazol-3-yl)bicyclo[2.2.2]octan-1-yl)methyl)-4,4-difluoro-N-(4′-(methylsulfonyl)-[1,1′-biphenyl]-3-yl)cyclohexane-1-carboxamide], for which the midpoint of the response, the EC50, lay at 205 nM.

`Cn1nc(C2CC2)cc1C12CCC(CN(C(=O)C3CCS(=O)(=O)CC3)c3cccc(-c4cc(C5CC5)on4)c3)(CC1)CC2` [Example 131, N-((4-(3-cyclopropyl-1-methyl-1H-pyrazol-5-yl)bicyclo[2.2.2]octan-1-yl)methyl)-N-(3-(5-cyclopropylisoxazol-3-yl)phenyl)tetrahydro-2H-thiopyran-4-carboxamide 1,1-dioxide] displayed an EC50 of 1930 nM.

With `Cn1nc(C2CC2)cc1C12CCC(CN(C(=O)C3CCOCC3)c3cccc(-c4cc(C5CC5)on4)c3)(CC1)CC2` [Example 132, N-((4-(3-cyclopropyl-1-methyl-1H-pyrazol-5-yl)bicyclo[2.2.2]octan-1-yl)methyl)-N-(3-(5-cyclopropylisoxazol-3-yl)phenyl)tetrahydro-2H-pyran-4-carboxamide], the EC50 is 227 nM.

As to `CN1CCC(C(=O)N(CC23CCC(c4cc(C5CC5)nn4C)(CC2)CC3)c2cccc(-c3cc(C4CC4)on3)c2)CC1` [Example 133, N-((4-(3-cyclopropyl-1-methyl-1H-pyrazol-5-yl)bicyclo[2.2.2]octan-1-yl)methyl)-N-(3-(5-cyclopropylisoxazol-3-yl)phenyl)-1-methylpiperidine-4-carboxamide], the half-maximal effective concentration (EC50) worked out at 2000 nM.

Consider `Cn1nc(C2CC2)cc1C12CCC(CN(C(=O)C3CCOCC3)c3cccc(-c4ccc(S(C)(=O)=O)cc4)c3)(CC1)CC2` [Example 134, N-((4-(3-cyclopropyl-1-methyl-1H-pyrazol-5-yl)bicyclo[2.2.2]octan-1-yl)methyl)-N-(4′-(methylsulfonyl)-[1,1′-biphenyl]-3-yl)tetrahydro-2H-pyran-4-carboxamide], for which a half-maximal response (EC50) required 511 nM.

Turning to `Cn1nc(C2CC2)cc1C12CCC(CN(C(=O)C3CCS(=O)(=O)CC3)c3cccc(-c4ccc(S(C)(=O)=O)cc4)c3)(CC1)CC2` [Example 135, N-((4-(3-cyclopropyl-1-methyl-1H-pyrazol-5-yl)bicyclo[2.2.2]octan-1-yl)methyl)-N-(4′-(methylsulfonyl)-[1,1′-biphenyl]-3-yl)tetrahydro-2H-thiopyran-4-carboxamide 1,1-dioxide], the EC50 was determined as 4000 nM.
